Source: patent US20210139959A1, “MODIFIED NUCLEOTIDE TRIPHOSPHATES FOR MOLECULAR ELECTRONIC SENSORS” (priority 2016, published 2021)

Test system: polymerase, e.g., E. coli Pol I
Conditions: DNA template A20-C3-A30-G (SEQ ID NO: 3), FIG. 9; T signals are increased current; interpretation of the data
From the text: In this example, 7-deaza-dGTP (see FIG. 14B) was used as a modified dGTP. The signals were obtained for the DNA template {GTCA}10-[sequence] (SEQ ID NO: 2), comprising the 7-deaza modified dGTP.
In this embodiment, the signal data are obtained for the DNA template {GTCA}10-[sequence] (SEQ ID NO: 2), when a modified dGTP is used (7-deaza dGTP of FIG. 14B).

Nc1nc2c(ccn2[C@H]2C[C@H](O)[C@@H](COP(=O)(O)OP(=O)(O)OP(=O)(O)O)O2)c(=O)[nH]1 [7-deaza dGTP, 7-deaza-2′-deoxyguanosine-5′-triphosphate]
modified dGTP incorporation signal (current): reduction in current
